The compounds below were run against Active Human ERK2 (hERK2) (Homo sapiens (Human), UniProt P28482) (assay: Active Human ERK2 (hERK2) Activity Assay (IMAP-FP)). Conditions: phosphorylated active hERK2, 30 μM ATP; average; read-out: ERK 2 Human average IC50.
Type: biochemical
Summary of the method: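 Phosphorylation by activated human ERK2 (0.5 nM) at 30 μM ATP, peptide substrate 900 nM unlabeled with 80 nM labeled, proceeds 60 min. IMAP beads stop the reaction; after 60 min equilibration, product is measured by fluorescence polarization.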

Chain of Active Human ERK2 (hERK2) (P28482 whole entry): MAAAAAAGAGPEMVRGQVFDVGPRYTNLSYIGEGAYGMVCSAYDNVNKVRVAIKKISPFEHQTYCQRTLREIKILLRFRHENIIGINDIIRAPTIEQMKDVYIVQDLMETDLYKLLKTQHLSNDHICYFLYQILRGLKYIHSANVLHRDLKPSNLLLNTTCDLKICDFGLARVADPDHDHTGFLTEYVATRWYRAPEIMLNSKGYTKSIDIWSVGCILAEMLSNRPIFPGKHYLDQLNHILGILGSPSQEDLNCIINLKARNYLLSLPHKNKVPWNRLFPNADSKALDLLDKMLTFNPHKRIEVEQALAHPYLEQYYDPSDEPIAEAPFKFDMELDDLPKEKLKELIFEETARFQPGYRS

SMILES | IC50 [nM]
COC[C@H](NC(=O)Nc1cc2[nH]nc(-c3ccnc(C)c3)c2cn1)c1ccccn1 [Example 415] | 20
Cc1cc(-c2n[nH]c3cc(NC(=O)NCc4scnc4C)ncc23)ccn1 [Example 418] | 2.75
Cc1cc(-c2n[nH]c3cc(NC(=O)NCc4cc[nH]n4)ncc23)ccn1 [Example 419] | 2.72
Cc1cc(-c2n[nH]c3cc(NC(=O)NCc4ncn[nH]4)ncc23)ccn1 [Example 422] | 5.42
Cc1cc(-c2n[nH]c3cc(NC(=O)NCc4ncon4)ncc23)ccn1 [Example 426] | 5.67
Cc1cc(-c2n[nH]c3cc(NC(=O)NCc4ncco4)ncc23)ccn1 [Example 433] | 2.97
Cc1cc(-c2n[nH]c3cc(NC(=O)NCc4nncs4)ncc23)ccn1 [Example 438] | 6.6
Cc1cc(-c2n[nH]c3cc(NC(=O)NCc4ccc(Cl)cc4Cl)ncc23)ccn1 [Example 443] | 11.8
Cc1cc(-c2n[nH]c3cc(NC(=O)NCc4ccc(C#N)cc4)ncc23)ccn1 [Example 445] | 3.73
Cc1cc(-c2n[nH]c3cc(NC(=O)NCc4cccnn4)ncc23)ccn1 [Example 446] | 3.3
Cc1cc(-c2n[nH]c3cc(NC(=O)NCc4ncccc4F)ncc23)ccn1 [Example 447] | 2.62
Cc1cc(-c2n[nH]c3cc(NC(=O)N[C@H](C(=O)O)C(C)C)ncc23)ccn1 [Example 452] | 2240
Cc1cc(-c2n[nH]c3cc(NC(=O)N[C@@H](C)C(=O)O)ncc23)ccn1 [Example 454] | 237
COC(=O)[C@H](C)NC(=O)Nc1cc2[nH]nc(-c3ccnc(C)c3)c2cn1 [Example 455] | 520
Cc1cc(-c2n[nH]c3cc(NC(=O)N[C@H]4CCOC4=O)ncc23)ccn1 [Example 456] | 253
COC(=O)C(NC(=O)Nc1cc2[nH]nc(-c3ccnc(C)c3)c2cn1)C(F)(F)F (centres unmarked) [Example 457] | 31.1
Cc1cc(-c2n[nH]c3cc(NC(=O)NCC4CCCO4)ncc23)ccn1 (centres unmarked) [Example 458] | 8.46
Cc1cc(-c2n[nH]c3cc(NC(=O)NCC4COc5ccccc5O4)ncc23)ccn1 (centres unmarked) [Example 459] | 2.74
COC(=O)[C@@H](NC(=O)Nc1cc2[nH]nc(-c3ccnc(C)c3)c2cn1)C(C)C [Example 460] | 160
COC(=O)[C@@H](C)NC(=O)Nc1cc2[nH]nc(-c3ccnc(C)c3)c2cn1 [Example 461] | 31.2
Cc1cc(-c2n[nH]c3cc(NC(=O)NCC(=O)O)ncc23)ccn1 [Example 462] | 356

SMILES | IC50 [nM]
Cc1cc(-c2n[nH]c3cc(NC(=O)NCC4COCCO4)ncc23)ccn1 (centres unmarked) [Example 464] | 3.57
Cc1cc(-c2n[nH]c3cc(NC(=O)NC4COC4)ncc23)ccn1 [Example 465] | 320
Cc1cc(-c2n[nH]c3cc(NC(=O)NCC4CNC(=O)O4)ncc23)ccn1 (centres unmarked) [Example 466] | 2.81
Cc1cc(-c2n[nH]c3cc(NC(=O)NC4CCCOC4)ncc23)ccn1 (centres unmarked) [Example 468] | 8.62
Cc1cc(-c2n[nH]c3cc(NC(=O)NCc4cc(C)on4)ncc23)ccn1 [Example 470] | 4.12
CCn1cc(CNC(=O)Nc2cc3[nH]nc(-c4ccnc(C)c4)c3cn2)cn1 [Example 471] | 10.2
COc1cc(CNC(=O)Nc2cc3[nH]nc(-c4ccnc(C)c4)c3cn2)on1 [Example 472] | 11.1
Cc1cc(-c2n[nH]c3cc(NC(=O)NCc4nc(N)cs4)ncc23)ccn1 [Example 473] | 2.69
Cc1cc(-c2n[nH]c3cc(NC(=O)NCc4nnc(C)s4)ncc23)ccn1 [Example 474] | 33.7
Cc1cc(-c2n[nH]c3cc(NC(=O)NCc4nc(C)cs4)ncc23)ccn1 [Example 477] | 2.61
Cc1cc(-c2n[nH]c3cc(NC(=O)NCc4ccc(Cl)cn4)ncc23)ccn1 [Example 478] | 6.01
Cc1cc(-c2n[nH]c3cc(NC(=O)NCc4ccccn4)ncc23)ccn1 [Example 479] | 3.02
Cc1cc(-c2n[nH]c3cc(NC(=O)N[C@@H](CN(C)C)c4ccccc4)ncc23)ccn1 [Example 481] | 10.8
Cc1cc(-c2n[nH]c3cc(NC(=O)NCC4CCO4)ncc23)ccn1 (centres unmarked) [Example 484] | 376
COC[C@H](NC(=O)Nc1cc2[nH]nc(-c3ccc(F)cc3)c2cn1)c1ccccn1 [Example 486] | 23.5
Cc1cc(-c2n[nH]c3cc(NC(=O)NCc4ncc(Cl)cc4F)ncc23)ccn1 [Example 487] | 10.1
Cc1cc(-c2n[nH]c3cc(NC(=O)NCc4csc5ccc(Cl)cc45)ncc23)ccn1 [Example 488] | 5.85
Cc1cc(-c2n[nH]c3cc(NC(=O)N[C@@H]4c5ccccc5C[C@H]4N(C)C)ncc23)ccn1 [Example 490] | 11.3
Cc1cc(-c2n[nH]c3cc(NC(=O)NC4(CN)CCc5cc(F)ccc54)ncc23)ccn1 (centres unmarked) [Example 492] | 26
COC[C@H](Cc1ccccc1)NC(=O)Nc1cc2[nH]nc(-c3ccnc(C)c3)c2cn1 [Example 494] | 4.34
Cc1ccnc(C(C)NC(=O)Nc2cc3[nH]nc(-c4ccnc(C)c4)c3cn2)c1 (centres unmarked) [Example 498] | 2.82

Further compounds by falling IC50, results first:

IC50 [nM] | SMILES
2.55 | Cc1cc(-c2n[nH]c3cc(NC(=O)NCc4cn[nH]c4)ncc23)ccn1 [Example 420]
2.55 | Cc1cc(-c2n[nH]c3cc(NC(=O)NCc4ncnn4C)ncc23)ccn1 [Example 424]
2.52 | Cc1cc(-c2n[nH]c3cc(NC(=O)NCc4c[nH]nn4)ncc23)ccn1 [Example 431]
2.14 | Cc1cc(-c2n[nH]c3cc(NC(=O)NCCOC(C)C)ncc23)ccn1 [Example 451]
2.14 | Cc1cc(-c2n[nH]c3cc(NC(=O)NCc4nccs4)ncc23)ccn1 [Example 436]
1.95 | Cc1cc(-c2n[nH]c3cc(NC(=O)NCc4cnoc4)ncc23)ccn1 [Example 437]
1.91 | Cc1cc(-c2n[nH]c3cc(NC(=O)NCc4ncc(F)cc4F)ncc23)ccn1 [Example 450]
1.62 | Cc1cc(-c2n[nH]c3cc(NC(=O)NCCOc4ccccc4)ncc23)ccn1 [Example 453]
1.58 | Cc1cc(-c2n[nH]c3cc(NC(=O)NCC4(C)CCCO4)ncc23)ccn1 (centres unmarked) [Example 463]
1.53 | Cc1cc(-c2n[nH]c3cc(NC(=O)NC(C)c4ccno4)ncc23)ccn1 (centres unmarked) [Example 497]
1.41 | Cc1cc(-c2n[nH]c3cc(NC(=O)NCc4cnccc4C)ncc23)ccn1 [Example 491]
1.41 | Cc1cc(-c2n[nH]c3cc(NC(=O)NC(C)c4cscn4)ncc23)ccn1 (centres unmarked) [Example 496]
1.36 | Cc1cc(-c2n[nH]c3cc(NC(=O)NCc4ncc[nH]4)ncc23)ccn1 [Example 427]
1.31 | Cc1cc(-c2n[nH]c3cc(NC(=O)NCc4csc5ccccc45)ncc23)ccn1 [Example 502]
1.3 | Cc1cc(-c2n[nH]c3cc(NC(=O)NCc4ccccc4Cl)ncc23)ccn1 [Example 439]
1.25 | Cc1cc(-c2n[nH]c3cc(NC(=O)NC4COc5ccccc5C4)ncc23)ccn1 (centres unmarked) [Example 467]
1.22 | Cc1cc(-c2n[nH]c3cc(NC(=O)NCc4ncccc4C)ncc23)ccn1 [Example 480]
1.21 | Cc1cc(-c2n[nH]c3cc(NC(=O)NCC4CCCCO4)ncc23)ccn1 (centres unmarked) [Example 469]
1.14 | Cc1cc(-c2n[nH]c3cc(NC(=O)NCc4cnc(C)s4)ncc23)ccn1 [Example 434]
1.12 | Cc1cc(-c2n[nH]c3cc(NC(=O)NCc4ccns4)ncc23)ccn1 [Example 429]
1.12 | Cc1cc(-c2n[nH]c3cc(NC(=O)NCc4c(C)cccc4Cl)ncc23)ccn1 [Example 444]

IC50 [nM] | SMILES
1.08 | Cc1cc(-c2n[nH]c3cc(NC(=O)NCc4ccno4)ncc23)ccn1 [Example 435]
0.958 | Cc1cc(-c2n[nH]c3cc(NC(=O)NC4CNc5ccccc5C4)ncc23)ccn1 (centres unmarked) [Example 501]
0.858 | Cc1cc(-c2n[nH]c3cc(NC(=O)N[C@H](C)c4ccc(F)cn4)ncc23)ccn1 [Example 503]
0.827 | Cc1cc(-c2n[nH]c3cc(NC(=O)NCc4ncccc4Cl)ncc23)ccn1 [Example 448]
0.815 | Cc1cc(-c2n[nH]c3cc(NC(=O)NCc4ccccc4F)ncc23)ccn1 [Example 442]
0.78 | COC[C@@H](NC(=O)Nc1cc2[nH]nc(-c3ccnc(C)c3)c2cn1)c1ccccn1 [Example 416]
0.778 | COC[C@@H](NC(=O)Nc1cc2[nH]nc(-c3ccc(F)cc3)c2cn1)c1ccccn1 [Example 500]
0.755 | CC[C@@H](NC(=O)Nc1cc2[nH]nc(-c3ccnc(C)c3)c2cn1)c1ccc(Cl)cc1 [Example 414]
0.745 | Cc1cc(-c2n[nH]c3cc(NC(=O)NCc4cscn4)ncc23)ccn1 [Example 432]
0.608 | COc1ncccc1CNC(=O)Nc1cc2[nH]nc(-c3ccnc(C)c3)c2cn1 [Example 495]
0.594 | Cc1cc(-c2n[nH]c3cc(NC(=O)NCc4cnsc4)ncc23)ccn1 [Example 423]
0.587 | Cc1cc(-c2n[nH]c3cc(NC(=O)NCc4ccsn4)ncc23)ccn1 [Example 476]
0.469 | Cc1cc(-c2n[nH]c3cc(NC(=O)NCc4c(F)cccc4Cl)ncc23)ccn1 [Example 440]
0.428 | Cc1cc(-c2n[nH]c3cc(NC(=O)Nc4noc5cccnc45)ncc23)ccn1 [Example 493]
0.385 | Cc1cc(-c2n[nH]c3cc(NC(=O)NCc4ccsc4)ncc23)ccn1 [Example 475]
0.323 | Cc1cc(-c2n[nH]c3cc(NC(=O)NCc4cnsn4)ncc23)ccn1 [Example 425]
0.309 | Cc1cc(-c2n[nH]c3cc(NC(=O)NCc4ccccc4OC(F)F)ncc23)ccn1 [Example 441]
0.307 | COc1cccc(F)c1CNC(=O)Nc1cc2[nH]nc(-c3ccnc(C)c3)c2cn1 [Example 485]
0.29 | Cc1cc(-c2n[nH]c3cc(NC(=O)N[C@H](CN(C)C)c4ccccc4)ncc23)ccn1 [Example 482]
0.152 | Cc1cc(-c2n[nH]c3cc(NC(=O)N[C@H](CN)c4ccccc4)ncc23)ccn1 [Example 483]

From patent publication US9023865B2, “Compounds that are ERK inhibitors” (Merck Sharp & Dohme Corp., priority 2011, dated 2015)
